# Measurements reported in patent US20250275910A1, “Cosmetic application of viniferine” (Tomcat International Limited, priority 2021, published 2025).
# Experiments:
# [1] = system: human epidermal melanocytes (HEM); assay: Melanin content test on human epidermal melanocytes exposed to blue light; format: cell-based; conditions: total 120 J/cm^2
# Method: In the following experimental part, the preventive effect of ε-viniferine (trans-ε-viniferine) at different concentrations, on the damage caused by blue light at two wavelengths (412 nm, characteristic of solar blue light and 450 nm, characteristic of blue light from screens) was evaluated by means of a test for determining the melanin content of cells treated with a composition of the invention. In order to determine the maximum concentrations to be tested, the toxicity of different concentrations of the compositions tested was first evaluated via the MTT test, a live cell counting test involving the MTT tetrazolium salt as a reagent and well known to the professional.
# The tests were carried out on human epidermal melanocytes (HEM), which are cells that produce melanin and are therefore responsible for skin pigmentation. […]
# The HEM cells were cultured at 37° C., in a 5% CO2 atmosphere and treated with a determined concentration of the composition C1 or the composition C2. […]
# (§1) The coloring intensity determined by the optical density measured at 405 nm is directly correlated to the melanin content.
# (§2) The melanin content is calculated by relating the absorbance value to that of the negative control.
# (§3) The percentage variation in melanin content compared to the blank test or the negative control is calculated according to the following equation: […]
# human skin explants = assay: Melanin content test on human skin explants exposed to blue light; format: cell-based; conditions: human skin explants treated with C11 or C12, blue light at 412 nm or 450 nm, total 120 J/cm^2
# Method: The tests were carried out on human skin explants obtained from plastic surgery. The biopsies are divided into explants of 8 mm diameter and kept for survival in complete medium. at 37° C. and in an atmosphere of 5% CO2.
# The skin explants are exposed to blue light, at 412 nm or 450 nm or kept in the dark (control) for 5 hours per day, for 3 days, representing a total irradiation of 120 J/cm^2. Before each exposure, the explants are treated overnight with the compositions C11 or C12.
# 24 hours after the last irradiation, the explants are collected and incubated in a 1 M NaOH solution at 80° C. for 3 hours, allowing the melanin to solubilize. […]
# as §1, §2, §3
smiles,measurement,setting,value
"Oc1ccc(/C=C/c2cc(O)cc3c2[C@@H](c2cc(O)cc(O)c2)[C@H](c2ccc(O)cc2)O3)cc1 (relative stereo) [ε-viniferine, trans-ε-viniferine]",production of melanin (optical density at 405 nm),"[1]; HEM cells treated 24 h before exposure to blue light at 412 nm or 450 nm, 5 h per day for 3 days, versus untreated irradiated cells (NT)",significantly reduce the production of melanin
same,melanin content relative to culture not exposed to blue light,"[1]; HEM cells, blue light at 450 nm",lower the melanin content to the content of a culture of melanocytes not exposed to blue light
same,melanin content relative to explant not exposed to blue light,human skin explants,lower the melanin content to the content of an explant not exposed to blue light
